Patent US11161843B2, “Fused heterocyclic compound and composition containing same” (Sumitomo Chemical Company, Limited, priority 2017, dated 2021)

What was measured:
[1] = tested on: brown planthopper (Nilaparvata lugens); experiment: Test Example 3: spray on rice seedling, brown planthopper larvae; format: in vivo; details: 500 ppm, spray 10 mL/seedling, 3rd instar larvae, counted after 6 days
Description: The test compounds were made to a formulation according to the method described in the Formulation Example 5, and thereto was added water containing 0.03 v/v % of a spreader to prepare a diluted solution containing a prescribed concentration of the test compound.
Rice (Oryza sativa) seedling (on the developmental stage of the second true leaf) was planted in a container, and the diluted solutions were sprayed into the seedling in a ratio of 10 mL/seedling. Thereafter, 20 of 3rd instar larvae of brown planthopper (Nilaparvata lugens) were released onto the rice leaves. After 6 days, the number of the surviving insects was examined, and the mortality was calculated by the following equation. Mortality (%)={1−the number of the surviving insects/20}×100

[2] = tested on: cotton aphid; experiment: Test Example 2: irrigation into plant foot of cucumber seedling, cotton aphid inoculated after 7 days; format: in vivo, Aphis gossypii; details: 1,000 ppm, 5 mL/seedling irrigated into plant foot, aphids inoculated after 7 days, counted after additional 6 days
Description: The test compounds were made to a formulation according to the method described in the Formulation Example 5, and thereto was added water to prepare a diluted solution containing a prescribed concentration of the test compound. Cucumber seedling (on the developmental stage of the second true leaf) was planted in a container, and the diluted solutions in the ratio on 5 mL/seedling were irrigated into the plant foot. After 7 days, approximately 30 of cotton aphid (all stages of life) were inoculated onto the cucumber leaves. After additional 6 days, the number of the surviving insects was examined, and the controlling value was calculated by the following equation. Controlling value (%)={1−(Cb×Tai)/(Cai×Tb)}*100 wherein the symbols in the formula represent the following descriptions. Cb: Number of the test insects in untreated group; Cai: Number of the surviving insects at the time of the investigation in untreated group; Tb: Number of the test insects in treated group; Tai: Number of the surviving insects at the time of the investigation in treated group; Here the “untreated group” represents a group where a similar treatment procedure to that of the treated group except not using the test compound is done.

## CCS(=O)(=O)c1ccc2nncn2c1-c1ccc(OCC(F)(F)C(F)(F)F)cn1 [compound 4]
[1]
  controlling value: ≥ 90%
[2]
  controlling value: ≥ 90%
